Test results: ChEMBL document CHEMBL1201862, “PubChem BioAssay data set” (2004)
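Following 48 hours of exposure in 96-well plates, responses at five concentrations were used to interpolate endpoints linearly. Abbreviation: GI50, concentration required for 50% inhibition of growth.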 Calls of active or inactive are those of the source. No stated cut-off is given here; in the data, active = GI50 up to about 1.1 µM and inactive = higher.

Tests used:
Experiment in all cases: NCI tumour cell line growth inhibition, 48 h
PC-3 = system: PC-3
SK-OV-3 = system: SK-OV-3
K562 = system: K562
SF-539 = system: SF-539
EKVX = system: EKVX
NCI-H522 = system: NCI-H522
OVCAR-4 = system: OVCAR-4
NCI-H226 = system: NCI-H226
DU-145 = system: DU-145
UACC-62 = system: UACC-62
HCC 2998 = system: HCC 2998
CAKI-1 = system: CAKI-1
OVCAR-5 = system: OVCAR-5
SK-MEL-5 = system: SK-MEL-5
U-251 = system: U-251
MOLT-4 = system: MOLT-4
SF-295 = system: SF-295
M14 = system: M14
HL-60 = system: HL-60
SN12C = system: SN12C
SK-MEL-28 = system: SK-MEL-28
MDA-MB-231 = system: MDA-MB-231
SK-MEL-2 = system: SK-MEL-2
MCF7 = system: MCF7
NCI-H460 = system: NCI-H460
HOP-62 = system: HOP-62
RXF 393 = system: RXF 393
SNB-19 = system: SNB-19
KM12 = system: KM12
OVCAR-8 = system: OVCAR-8
LOX IMVI = system: LOX IMVI
BT-549 = system: BT-549
Malme-3M = system: Malme-3M
UACC-257 = system: UACC-257
MDA-N = system: MDA-N
A498 = system: A498
T47D = system: T47D
RPMI-8226 = system: RPMI-8226
IGROV-1 = system: IGROV-1
HOP-92 = system: HOP-92
HCT-15 = system: HCT-15
SF-268 = system: SF-268
SW-620 = system: SW-620
Hs-578T = system: Hs-578T
CCRF-CEM = system: CCRF-CEM
ACHN = system: ACHN
786-0 = system: 786-0
HT-29 = system: HT-29
MDA-MB-435 = system: MDA-MB-435
SNB-75 = system: SNB-75
NCI/ADR-RES = system: NCI/ADR-RES
HCT-116 = system: HCT-116
UO-31 = system: UO-31
A549 = system: A549
NCI-H23 = system: NCI-H23
TK-10 = system: TK-10
COLO 205 = system: COLO 205
OVCAR-3 = system: OVCAR-3
SR = system: SR

## CC(C)(C)OC(=O)C1=C(N)N(Cc2ccccc2)C2(C)C=CC(=O)C=C12 (stereo unspecified)
PC-3
  GI50: 7.21 µM (inactive)
SK-OV-3
  GI50: 19.5 µM (inactive)
K562
  GI50: 2.74 µM (inactive)
SF-539
  GI50: 5.3 µM (inactive)
EKVX
  GI50: 5.73 µM (inactive)
NCI-H522
  GI50: 1.67 µM (inactive)
OVCAR-4
  GI50: 3.36 µM (inactive)
NCI-H226
  GI50: 12.9 µM (inactive)
DU-145
  GI50: 4.04 µM (inactive)
UACC-62
  GI50: 7.93 µM (inactive)
HCC 2998
  GI50: 14.2 µM (inactive)
CAKI-1
  GI50: 1.83 µM (inactive)
OVCAR-5
  GI50: 18.1 µM (inactive)
SK-MEL-5
  GI50: 4.31 µM (inactive)
U-251
  GI50: 8.73 µM (inactive)
MOLT-4
  GI50: 2.48 µM (inactive)
SF-295
  GI50: 14.9 µM (inactive)
M14
  GI50: 2.98 µM (inactive)
HL-60
  GI50: 1.88 µM (inactive)
SN12C
  GI50: 8.47 µM (inactive)
SK-MEL-28
  GI50: 7.41 µM (inactive)
MDA-MB-231
  GI50: 6.98 µM (inactive)
SK-MEL-2
  GI50: 11.7 µM (inactive)
MCF7
  GI50: 2.5 µM (inactive)
NCI-H460
  GI50: 15.5 µM (inactive)
HOP-62
  GI50: 16 µM (inactive)
RXF 393
  GI50: 2.44 µM (inactive)
SNB-19
  GI50: 16.1 µM (inactive)
KM12
  GI50: 6.49 µM (inactive)
OVCAR-8
  GI50: 2.45 µM (inactive)
LOX IMVI
  GI50: 2.34 µM (inactive)
BT-549
  GI50: 1.95 µM (inactive)
Malme-3M
  GI50: 4.92 µM (inactive)
UACC-257
  GI50: 5.24 µM (inactive)
MDA-N
  GI50: 4.79 µM (inactive)
A498
  GI50: 10.2 µM (inactive)
T47D
  GI50: 3.1 µM (inactive)
RPMI-8226
  GI50: 2.6 µM (inactive)
IGROV-1
  GI50: 5.31 µM (inactive)
HOP-92
  GI50: 2.16 µM (inactive)
HCT-15
  GI50: 3.21 µM
SF-268
  GI50: 2.18 µM (inactive)
SW-620
  GI50: 2.37 µM (inactive)
Hs-578T
  GI50: 14.5 µM (inactive)
CCRF-CEM
  GI50: 2.58 µM (inactive)
ACHN
  GI50: 2.47 µM (inactive)
786-0
  GI50: 3.83 µM (inactive)
HT-29
  GI50: 4.03 µM (inactive)
MDA-MB-435
  GI50: 4.02 µM (inactive)
SNB-75
  GI50: 13 µM (inactive)
NCI/ADR-RES
  GI50: 23.9 µM (inactive)
HCT-116
  GI50: 3.27 µM (inactive)
UO-31
  GI50: 3.52 µM (inactive)
A549
  GI50: 12.4 µM (inactive)
NCI-H23
  GI50: 9.29 µM (inactive)
TK-10
  GI50: 3.44 µM (inactive)
COLO 205
  GI50: 2.3 µM (inactive)
OVCAR-3
  GI50: 3.1 µM (inactive)

## COC(=O)C1=Nc2c(C)nn(-c3ccccc3)c2N=C(c2ccccc2)C1
PC-3
  GI50: > 10 µM (inactive)
SK-OV-3
  GI50: > 10 µM (inactive)
K562
  GI50: > 10 µM (inactive)
SF-539
  GI50: > 10 µM (inactive)
NCI-H522
  GI50: > 10 µM (inactive)
OVCAR-4
  GI50: > 10 µM (inactive)
DU-145
  GI50: > 10 µM (inactive)
UACC-62
  GI50: > 10 µM (inactive)
HCC 2998
  GI50: > 10 µM (inactive)
CAKI-1
  GI50: > 10 µM (inactive)
OVCAR-5
  GI50: 0.001 µM (active)
SK-MEL-5
  GI50: > 10 µM (inactive)
U-251
  GI50: > 10 µM (inactive)
MOLT-4
  GI50: > 10 µM (inactive)
SF-295
  GI50: > 10 µM (inactive)
M14
  GI50: > 10 µM (inactive)
HL-60
  GI50: > 10 µM (inactive)
SN12C
  GI50: > 10 µM (inactive)
SK-MEL-28
  GI50: > 10 µM (inactive)
MDA-MB-231
  GI50: > 10 µM (inactive)
MCF7
  GI50: > 10 µM (inactive)
HOP-62
  GI50: > 10 µM (inactive)
SR
  GI50: > 10 µM (inactive)
SNB-19
  GI50: > 10 µM (inactive)
KM12
  GI50: > 10 µM (inactive)
OVCAR-8
  GI50: > 10 µM (inactive)
LOX IMVI
  GI50: > 10 µM (inactive)
BT-549
  GI50: > 10 µM (inactive)
Malme-3M
  GI50: > 10 µM (inactive)
UACC-257
  GI50: > 10 µM (inactive)
MDA-N
  GI50: > 10 µM (inactive)
T47D
  GI50: > 10 µM (inactive)
RPMI-8226
  GI50: > 10 µM (inactive)
IGROV-1
  GI50: > 10 µM (inactive)
HOP-92
  GI50: > 10 µM (inactive)
HCT-15
  GI50: > 10 µM
SF-268
  GI50: > 10 µM (inactive)
SW-620
  GI50: > 10 µM (inactive)
Hs-578T
  GI50: > 10 µM (inactive)
ACHN
  GI50: > 10 µM (inactive)
786-0
  GI50: > 10 µM (inactive)
HT-29
  GI50: > 10 µM (inactive)
MDA-MB-435
  GI50: > 10 µM (inactive)
SNB-75
  GI50: > 10 µM (inactive)
NCI/ADR-RES
  GI50: > 10 µM (inactive)
HCT-116
  GI50: > 10 µM (inactive)
A549
  GI50: > 10 µM (inactive)
NCI-H23
  GI50: > 10 µM (inactive)
TK-10
  GI50: > 10 µM (inactive)
COLO 205
  GI50: > 10 µM (inactive)
OVCAR-3
  GI50: > 10 µM (inactive)

## c1ccc2c[n+](Cc3ccnc4ccccc34)ccc2c1
PC-3
  GI50: > 100 µM (inactive)
SK-OV-3
  GI50: > 100 µM (inactive)
K562
  GI50: > 100 µM (inactive)
SF-539
  GI50: > 100 µM (inactive)
EKVX
  GI50: 71 µM (inactive)
NCI-H522
  GI50: > 100 µM (inactive)
OVCAR-4
  GI50: > 100 µM (inactive)
NCI-H226
  GI50: 41.8 µM (inactive)
DU-145
  GI50: > 100 µM (inactive)
UACC-62
  GI50: > 100 µM (inactive)
HCC 2998
  GI50: > 100 µM (inactive)
CAKI-1
  GI50: > 100 µM (inactive)
OVCAR-5
  GI50: > 100 µM (inactive)
SK-MEL-5
  GI50: 42.8 µM (inactive)
U-251
  GI50: > 100 µM (inactive)
MOLT-4
  GI50: > 100 µM (inactive)
SF-295
  GI50: > 100 µM (inactive)
M14
  GI50: > 100 µM (inactive)
SN12C
  GI50: > 100 µM (inactive)
SK-MEL-28
  GI50: > 100 µM (inactive)
MDA-MB-231
  GI50: > 100 µM (inactive)
SK-MEL-2
  GI50: > 100 µM (inactive)
MCF7
  GI50: > 100 µM (inactive)
NCI-H460
  GI50: > 100 µM (inactive)
HOP-62
  GI50: > 100 µM (inactive)
SR
  GI50: > 100 µM (inactive)
RXF 393
  GI50: > 100 µM (inactive)
SNB-19
  GI50: > 100 µM (inactive)
KM12
  GI50: > 100 µM (inactive)
OVCAR-8
  GI50: > 100 µM (inactive)
LOX IMVI
  GI50: > 100 µM (inactive)
BT-549
  GI50: > 100 µM (inactive)
Malme-3M
  GI50: > 100 µM (inactive)
UACC-257
  GI50: > 100 µM (inactive)
MDA-N
  GI50: > 100 µM (inactive)
A498
  GI50: > 100 µM (inactive)
T47D
  GI50: > 100 µM (inactive)
RPMI-8226
  GI50: > 100 µM (inactive)
IGROV-1
  GI50: > 100 µM (inactive)
HOP-92
  GI50: 97.7 µM (inactive)
HCT-15
  GI50: > 100 µM
SF-268
  GI50: > 100 µM (inactive)
SW-620
  GI50: > 100 µM (inactive)
Hs-578T
  GI50: > 100 µM (inactive)
CCRF-CEM
  GI50: > 100 µM (inactive)
ACHN
  GI50: > 100 µM (inactive)
786-0
  GI50: > 100 µM (inactive)
HT-29
  GI50: 51.8 µM (inactive)
MDA-MB-435
  GI50: > 100 µM (inactive)
NCI/ADR-RES
  GI50: > 100 µM (inactive)
HCT-116
  GI50: > 100 µM (inactive)
UO-31
  GI50: > 100 µM (inactive)
A549
  GI50: > 100 µM (inactive)
NCI-H23
  GI50: > 100 µM (inactive)
TK-10
  GI50: > 100 µM (inactive)
COLO 205
  GI50: 67.1 µM (inactive)
OVCAR-3
  GI50: 67 µM (inactive)
